In PubChem BioAssay AID1963833 (Molecular Pharmacology Branch, DTP, NCI, 2024):

Test system: 883617-216-R-J1-PDC complex spheroid viability
Test: Anticancer human tumor 883617-216-R-J1-PDC patient-derived bladder carcinoma cell line growth inhibition [POLQ]
Settings: for IC50: curve of first compound; for viability, T/C: stronger effect = lower value
Summary of the method: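 PDC + HUVEC + MSC complex spheroids; POLQ inhibitors ± partner drugs; top conc. at/near clinical Cmax, else 10 microM (SN-38 1 microM), half-log dilutions; 37 degrees C, 5% CO2.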

[1] = second compound 0.0316 µM, first compound 0.0316 µM
[2] = second compound 0.0316 µM, first compound 0.1 µM
[3] = second compound 0.0316 µM, first compound 0.316 µM
[4] = second compound 0.0316 µM, first compound 1 µM
[5] = second compound 0.0316 µM, first compound 3.16 µM
[6] = second compound 0.0316 µM, first compound 10 µM
[7] = second compound 0.1 µM, first compound 0.0316 µM
[8] = second compound 0.1 µM, first compound 0.1 µM
[9] = second compound 0.1 µM, first compound 0.316 µM
[10] = second compound 0.1 µM, first compound 1 µM
[11] = second compound 0.1 µM, first compound 3.16 µM
[12] = second compound 0.1 µM, first compound 10 µM
[13] = second compound 0.316 µM, first compound 0.0316 µM
[14] = second compound 0.316 µM, first compound 0.1 µM
[15] = second compound 0.316 µM, first compound 0.316 µM
[16] = second compound 0.316 µM, first compound 1 µM
[17] = second compound 0.316 µM, first compound 3.16 µM
[18] = second compound 0.316 µM, first compound 10 µM
[19] = second compound 1 µM, first compound 0.0316 µM
[20] = second compound 1 µM, first compound 0.1 µM
[21] = second compound 1 µM, first compound 0.316 µM
[22] = second compound 1 µM, first compound 1 µM
[23] = second compound 1 µM, first compound 3.16 µM
[24] = second compound 1 µM, first compound 10 µM
[25] = second compound 3.16 µM, first compound 0.0316 µM
[26] = second compound 3.16 µM, first compound 0.1 µM
[27] = second compound 3.16 µM, first compound 0.316 µM
[28] = second compound 3.16 µM, first compound 1 µM
[29] = second compound 3.16 µM, first compound 3.16 µM
[30] = second compound 3.16 µM, first compound 10 µM
[31] = second compound 10 µM, first compound 0.0316 µM
[32] = second compound 10 µM, first compound 0.1 µM
[33] = second compound 10 µM, first compound 0.316 µM
[34] = second compound 10 µM, first compound 1 µM
[35] = second compound 10 µM, first compound 3.16 µM
[36] = second compound 10 µM, first compound 10 µM
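Note: spheroids exposed to compounds for seven days before readout.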
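Throughout, for viability, T/C: 100% = DMSO vehicle control viability.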

Structure (SMILES): COc1cc(C2c3cc4c(cc3C(OC3OC5COC(C)OC5C(O)C3O)C3COC(=O)C23)OCO4)cc(OC)c1O (stereo unspecified) + Cc1cccc(N(C)C(=O)C2C(O)CCN2c2nc(C)cc(C(F)(F)F)c2C#N)c1
- IC50 (second compound 0.0316 µM): > 10 µM
- IC50 (second compound 0.1 µM): 6.38 µM
- IC50 (second compound 0.316 µM): > 10 µM
- IC50 (second compound 1 µM): > 10 µM
- IC50 (second compound 3.16 µM): > 10 µM
- IC50 (second compound 10 µM): > 10 µM
- viability, T/C [1]: 98.5%
- viability, T/C [2]: 95.8%
- viability, T/C [3]: 75.2%
- viability, T/C [4]: 66%
- viability, T/C [5]: 64%
- viability, T/C [6]: 54.8%
- viability, T/C [7]: 109%
- viability, T/C [8]: 97.8%
- viability, T/C [9]: 86.3%
- viability, T/C [10]: 68.1%
- viability, T/C [11]: 59.3%
- viability, T/C [12]: 44.7%
- viability, T/C [13]: 96.7%
- viability, T/C [14]: 85.9%
- viability, T/C [15]: 70%
- viability, T/C [16]: 66.7%
- viability, T/C [17]: 54.4%
- viability, T/C [18]: 53.6%
- viability, T/C [19]: 90%
- viability, T/C [20]: 102%
- viability, T/C [21]: 76.9%
- viability, T/C [22]: 64.5%
- viability, T/C [23]: 54.9%
- viability, T/C [24]: 52.6%
- viability, T/C [25]: 121%
- viability, T/C [26]: 94.5%
- viability, T/C [27]: 77.8%
- viability, T/C [28]: 61.3%
- viability, T/C [29]: 66.5%
- viability, T/C [30]: 49.6%
- viability, T/C [31]: 96.8%
- viability, T/C [32]: 104%
- viability, T/C [33]: 73%
- viability, T/C [34]: 73.2%
- viability, T/C [35]: 60%
- viability, T/C [36]: 55.5%

Structure (SMILES): COc1cccc2c1C(=O)c1c(O)c3c(c(O)c1C2=O)CC(O)(C(=O)CO)CC3OC1CC(N)C(O)C(C)O1 (stereo unspecified) + Cc1cccc(N(C)C(=O)C2C(O)CCN2c2nc(C)cc(C(F)(F)F)c2C#N)c1
- IC50 (second compound 0.0316 µM): 0.311 µM
- IC50 (second compound 0.1 µM): 0.228 µM
- IC50 (second compound 0.316 µM): 0.222 µM
- IC50 (second compound 1 µM): 0.359 µM
- IC50 (second compound 3.16 µM): 0.206 µM
- IC50 (second compound 10 µM): 0.33 µM
- viability, T/C [1]: 78%
- viability, T/C [2]: 60.8%
- viability, T/C [3]: 52.2%
- viability, T/C [4]: 9.43%
- viability, T/C [5]: 0.22%
- viability, T/C [6]: 0.21%
- viability, T/C [7]: 66.1%
- viability, T/C [8]: 67.9%
- viability, T/C [9]: 43.2%
- viability, T/C [10]: 8.29%
- viability, T/C [11]: 0.32%
- viability, T/C [12]: 0.2%
- viability, T/C [13]: 74.3%
- viability, T/C [14]: 59.8%
- viability, T/C [15]: 45.4%
- viability, T/C [16]: 6.2%
- viability, T/C [17]: 0.22%
- viability, T/C [18]: 0.2%
- viability, T/C [19]: 65.1%
- viability, T/C [20]: 57.5%
- viability, T/C [21]: 55.6%
- viability, T/C [22]: 5.25%
- viability, T/C [23]: 0.22%
- viability, T/C [24]: 0.2%
- viability, T/C [25]: 66.8%
- viability, T/C [26]: 57.3%
- viability, T/C [27]: 43.7%
- viability, T/C [28]: 3.99%
- viability, T/C [29]: 0.31%
- viability, T/C [30]: 0.29%
- viability, T/C [31]: 66%
- viability, T/C [32]: 58.1%
- viability, T/C [33]: 51.9%
- viability, T/C [34]: 1.41%
- viability, T/C [35]: 0.35%
- viability, T/C [36]: 0.34%

Structure (SMILES): O=c1[nH]cc(F)c(=O)[nH]1 + Cc1cccc(N(C)C(=O)C2C(O)CCN2c2nc(C)cc(C(F)(F)F)c2C#N)c1
- IC50 (second compound 0.0316 µM): > 10 µM
- IC50 (second compound 0.1 µM): > 10 µM
- IC50 (second compound 0.316 µM): > 10 µM
- IC50 (second compound 1 µM): > 10 µM
- IC50 (second compound 3.16 µM): > 10 µM
- IC50 (second compound 10 µM): > 10 µM
- viability, T/C [1]: 97%
- viability, T/C [2]: 104%
- viability, T/C [3]: 94.7%
- viability, T/C [4]: 89.7%
- viability, T/C [5]: 79.4%
- viability, T/C [6]: 57.8%
- viability, T/C [7]: 93.3%
- viability, T/C [8]: 97.2%
- viability, T/C [9]: 89.3%
- viability, T/C [10]: 102%
- viability, T/C [11]: 75.9%
- viability, T/C [12]: 62.3%
- viability, T/C [13]: 104%
- viability, T/C [14]: 107%
- viability, T/C [15]: 100%
- viability, T/C [16]: 109%
- viability, T/C [17]: 75.1%
- viability, T/C [18]: 64.8%
- viability, T/C [19]: 101%
- viability, T/C [20]: 105%
- viability, T/C [21]: 94.6%
- viability, T/C [22]: 88.2%
- viability, T/C [23]: 70.7%
- viability, T/C [24]: 66.4%
- viability, T/C [25]: 101%
- viability, T/C [26]: 90.1%
- viability, T/C [27]: 104%
- viability, T/C [28]: 85.6%
- viability, T/C [29]: 79.5%
- viability, T/C [30]: 65.7%
- viability, T/C [31]: 115%
- viability, T/C [32]: 102%
- viability, T/C [33]: 93.8%
- viability, T/C [34]: 89.9%
- viability, T/C [35]: 78.6%
- viability, T/C [36]: 74.6%
